The NIST ThermoML archive (doi:10.1016/j.fluid.2007.04.023)

Settings: Liquid, Vibrating tube method

CCCCCCCCCCCCC [tridecane]
Settings | mass density [kg/m3]
342.64 K, 1022 kPa | 722.03
342.64 K, 2014 kPa | 722.93
342.64 K, 3025 kPa | 723.84
342.64 K, 4021 kPa | 724.7
342.64 K, 5020 kPa | 725.59
342.64 K, 6020 kPa | 726.44
342.64 K, 7008 kPa | 727.27
342.64 K, 8026 kPa | 728.15
342.64 K, 9007 kPa | 728.98
342.64 K, 10010 kPa | 729.81
342.64 K, 11012 kPa | 730.63
342.64 K, 12014 kPa | 731.46
342.64 K, 13011 kPa | 732.27
342.64 K, 14008 kPa | 733.03
342.64 K, 15029 kPa | 733.84
342.64 K, 16006 kPa | 734.58
342.64 K, 17016 kPa | 735.35
342.64 K, 18019 kPa | 736.09
342.64 K, 19006 kPa | 736.85
342.64 K, 20001 kPa | 737.59
342.64 K, 21023 kPa | 738.34
342.64 K, 22008 kPa | 739.06
342.64 K, 23005 kPa | 739.79
342.64 K, 24032 kPa | 740.52
342.64 K, 25024 kPa | 741.14
352.47 K, 1013 kPa | 714.88
352.47 K, 2022 kPa | 715.88
352.47 K, 3010 kPa | 716.8
352.47 K, 4020 kPa | 717.71
352.47 K, 5019 kPa | 718.65
352.47 K, 6011 kPa | 719.55
352.47 K, 7017 kPa | 720.47
352.47 K, 8014 kPa | 721.35
352.47 K, 9022 kPa | 722.24
352.47 K, 10031 kPa | 723.11
352.47 K, 11010 kPa | 723.98
352.47 K, 12003 kPa | 724.82
352.47 K, 13024 kPa | 725.71
352.47 K, 14013 kPa | 726.54
352.47 K, 15007 kPa | 727.34
352.47 K, 16016 kPa | 728.16
352.47 K, 17007 kPa | 728.94
352.47 K, 18020 kPa | 729.77
352.47 K, 19011 kPa | 730.53
352.47 K, 20013 kPa | 731.29
352.47 K, 21032 kPa | 732.07
352.47 K, 22020 kPa | 732.84
352.47 K, 23020 kPa | 733.6
352.47 K, 24021 kPa | 734.36
352.47 K, 25024 kPa | 735.14
362.25 K, 1020 kPa | 707.72
362.25 K, 2026 kPa | 708.74
362.25 K, 3018 kPa | 709.77
362.25 K, 4006 kPa | 710.71
362.25 K, 5021 kPa | 711.73
362.25 K, 6019 kPa | 712.7
362.25 K, 7029 kPa | 713.67
362.25 K, 8017 kPa | 714.54
362.25 K, 9011 kPa | 715.51
362.25 K, 10011 kPa | 716.42
362.25 K, 11021 kPa | 717.35
362.25 K, 12018 kPa | 718.24
362.25 K, 13014 kPa | 719.11
362.25 K, 14000 kPa | 719.97
362.25 K, 15017 kPa | 720.85
362.25 K, 16026 kPa | 721.7
362.25 K, 17019 kPa | 722.52
362.25 K, 18034 kPa | 723.36
362.25 K, 19016 kPa | 724.17
362.25 K, 20004 kPa | 725
362.25 K, 21015 kPa | 725.8
362.25 K, 22022 kPa | 726.63
362.25 K, 23008 kPa | 727.42
362.25 K, 24034 kPa | 728.22
362.25 K, 25010 kPa | 729.02
